The supplement of paper PMC10307832

What was measured:
Test in all cases: relative viability (nuclei count vs DMSO), 5 days (fraction); higher = more cells survive
AZD8055 = compound: COc1ccc(-c2ccc3c(N4CCOC[C@@H]4C)nc(N4CCOC[C@@H]4C)nc3n2)cc1CO [AZD8055]
Outline: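 For viability, nuclei in each treated well were divided by nuclei in vehicle wells and the median across plates was taken. Lung cancer cell lines in 1536-well plates were pinned with five library-drug doses (not always all listed) spaced by √10, cultured 5 days without medium change, and imaged at 4× after Hoechst staining, with plates passing only at control CV below 25% and at least one doubling.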

AZD8055 + Navitoclax = compound: COc1ccc(-c2ccc3c(N4CCOC[C@@H]4C)nc(N4CCOC[C@@H]4C)nc3n2)cc1CO [AZD8055] + CC1(C)CCC(c2ccc(Cl)cc2)=C(CN2CCN(c3ccc(C(=O)NS(=O)(=O)c4ccc(N[C@H](CCN5CCOCC5)CSc5ccccc5)c(S(=O)(=O)C(F)(F)F)c4)cc3)CC2)C1 [Navitoclax] (partner 0.5 µM)
Outline: (§1)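 Lung cancer cell lines were seeded in 1536-well plates and dosed by pin tool the next day, with either a single drug or a fixed anchor-drug dose combined with five library-drug doses (not always all listed) spaced in √10 steps. Five days later, one step fixed the cells and stained their nuclei (final 0.05% Triton X-100, 1% formaldehyde, 1 ug/ml Hoechst), and nuclei were counted on 4× images. Relative viability is the nuclei count in treated wells divided by the count in vehicle wells, and each value is the median of duplicate plates.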

AZD8055 + Tozasertib = compound: COc1ccc(-c2ccc3c(N4CCOC[C@@H]4C)nc(N4CCOC[C@@H]4C)nc3n2)cc1CO [AZD8055] + Cc1cc(Nc2cc(N3CCN(C)CC3)nc(Sc3ccc(NC(=O)C4CC4)cc3)n2)n[nH]1 [Tozasertib] (partner 0.1 µM)
Outline: as §1

AZD8055 + Phenformin = compound: COc1ccc(-c2ccc3c(N4CCOC[C@@H]4C)nc(N4CCOC[C@@H]4C)nc3n2)cc1CO [AZD8055] + N=C(N)NC(=N)NCCc1ccccc1 [Phenformin] (partner 250 µM)
Outline: as §1

Row | Cell Line | relative viability (AZD8055; 0.01 µM) | relative viability (AZD8055; 0.03162 µM) | relative viability (AZD8055; 0.1 µM) | relative viability (AZD8055; 0.3162 µM) | relative viability (AZD8055; 1 µM) | relative viability (AZD8055 + Navitoclax; first compound 0.01 µM) | relative viability (AZD8055 + Navitoclax; first compound 0.03162 µM) | relative viability (AZD8055 + Navitoclax; first compound 0.1 µM) | relative viability (AZD8055 + Navitoclax; first compound 0.3162 µM) | relative viability (AZD8055 + Navitoclax; first compound 1 µM) | relative viability (AZD8055 + Tozasertib; first compound 0.01 µM) | relative viability (AZD8055 + Tozasertib; first compound 0.03162 µM) | relative viability (AZD8055 + Tozasertib; first compound 0.1 µM) | relative viability (AZD8055 + Tozasertib; first compound 0.3162 µM) | relative viability (AZD8055 + Tozasertib; first compound 1 µM) | relative viability (AZD8055 + Phenformin; first compound 0.01 µM) | relative viability (AZD8055 + Phenformin; first compound 0.03162 µM) | relative viability (AZD8055 + Phenformin; first compound 0.1 µM) | relative viability (AZD8055 + Phenformin; first compound 0.3162 µM) | relative viability (AZD8055 + Phenformin; first compound 1 µM)
1 | LCLC-97TM1 | 1.04 | 0.822 | 0.453 | 0.246 | 0.205 | 0.45 | 0.225 | 0.214 | 0.13 | 0.144 | 0.207 | 0.157 | 0.128 | 0.118 | 0.137 | 0.477 | 0.182 | 0.178 | 0.121 | 0.187
2 | LK-2 | 0.84 | 0.641 | 0.508 | 0.24 | 0.195 | 0.797 | 0.584 | 0.441 | 0.216 | 0.241 | 0.147 | 0.133 | 0.182 | 0.15 | 0.154 | 0.234 | 0.186 | 0.118 | 0.198 | 0.239
3 | LOU-NH91 | 0.931 | 0.934 | 0.724 | 0.633 | 0.624 | 0.708 | 0.642 | 0.587 | 0.466 | 0.437 | 0.735 | 0.716 | 0.693 | 0.672 | 0.506 | 0.678 | 0.711 | 0.532 | 0.49 | 0.455
4 | LU99A | 1.07 | 0.54 | 0.461 | 0.261 | 0.253 | 0.69 | 0.517 | 0.232 | 0.164 | 0.191 | 0.289 | 0.268 | 0.2 | 0.198 | 0.21 | 0.802 | 0.626 | 0.492 | 0.276 | 0.28
5 | LXF-289 | 1.07 | 1.05 | 1.01 | 0.909 | 0.768 | 0.979 | 0.995 | 0.831 | 0.694 | 0.529 | 0.234 | 0.295 | 0.212 | 0.201 | 0.105 | 0.539 | 0.534 | 0.508 | 0.458 | 0.385
6 | NCI-H23 | 1.09 | 0.804 | 0.662 | 0.371 | 0.373 | 0.879 | 0.847 | 0.677 | 0.318 | 0.253 | 0.486 | 0.311 | 0.248 | 0.24 | 0.235 | 0.785 | 0.778 | 0.713 | 0.465 | 0.403
7 | NCI-H322M | 0.933 | 0.968 | 0.741 | 0.64 | 0.601 | 1.17 | 1.09 | 0.845 | 0.488 | 0.546 | 0.458 | 0.45 | 0.408 | 0.347 | 0.326 | 0.726 | 0.704 | 0.662 | 0.501 | 0.502
8 | NCI-H441 | 1.06 | 0.929 | 0.695 | 0.427 | 0.387 | 0.748 | 0.955 | 0.464 | 0.334 | 0.251 | 0.591 | 0.767 | 0.499 | 0.309 | 0.295 | 0.767 | 0.574 | 0.628 | 0.27 | 0.343
9 | NCI-H460 | 1.13 | 0.995 | 0.798 | 0.416 | 0.264 | 1.19 | 0.892 | 0.523 | 0.121 | 0.0653 | 0.648 | 0.675 | 0.529 | 0.208 | 0.124 | 0.609 | 0.474 | 0.124 | 0.049 | 0.034
10 | NCI-H520 | 0.904 | 0.441 | 0.373 | 0.19 | 0.178 | 0.928 | 0.612 | 0.359 | 0.21 | 0.176 | 0.381 | 0.305 | 0.213 | 0.251 | 0.192 | 0.467 | 0.219 | 0.211 | 0.158 | 0.156
11 | NCI-H596 | 0.953 | 0.762 | 0.683 | 0.469 | 0.406 | 0.975 | 0.67 | 0.369 | 0.288 | 0.241 | 0.698 | 0.698 | 0.434 | 0.308 | 0.329 | 0.777 | 0.685 | 0.608 | 0.407 | 0.375
12 | NCI-H647 | 0.981 | 0.717 | 0.51 | 0.332 | 0.204 | 1.35 | 1.03 | 0.637 | 0.391 | 0.219 | 0.319 | 0.27 | 0.28 | 0.143 | 0.088 | 0.564 | 0.412 | 0.331 | 0.14 | 0.15
13 | NCI-H727 | 1.17 | 0.953 | 0.695 | 0.544 | 0.412 | 0.432 | 0.397 | 0.324 | 0.168 | 0.215 | 0.849 | 0.77 | 0.499 | 0.414 | 0.487 | 0.542 | 0.38 | 0.584 | 0.33 | 0.327
14 | NCI-H838 | 1.05 | 0.676 | 0.442 | 0.322 | 0.339 | 0.985 | 0.627 | 0.347 | 0.358 | 0.305 | 0.293 | 0.27 | 0.248 | 0.184 | 0.204 | 0.553 | 0.362 | 0.354 | 0.233 | 0.218
15 | NCI-H1355 | 0.889 | 0.865 | 0.578 | 0.303 | 0.261 | 0.959 | 0.736 | 0.382 | 0.21 | 0.21 | 0.483 | 0.5 | 0.399 | 0.278 | 0.228 | 0.442 | 0.396 | 0.344 | 0.286 | 0.28
16 | NCI-H1395 | 0.869 | 0.648 | 0.739 | 0.488 | 0.427 | 1.4 | 0.97 | 0.797 | 0.654 | 0.498 | 0.752 | 0.581 | 0.562 | 0.488 | 0.44 | 0.447 | 0.396 | 0.333 | 0.394 | 0.374
